Experimental data: PubChem BioAssay AID248 (DTP/NCI, 2004)
“And” between values parts separate entries of the source, which are not always exact repeats. Equal entries are not always repeated. Toxic doses and inconclusive results are not listed. Cut-off read from the data, not from the text of the source: active = T/C of 150% or more; inactive = T/C below 125%.

System: L1210 leukemia ip in BDF1 mice, survival T/C
Experiment: NCI In Vivo Anticancer Drug Screen. Data for tumor model L1210 Leukemia (intraperitoneal) in B6D2F1 (BDF1) mice
Conditions: endpoint: mean survival time, higher = longer survival
Method in brief: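 Transplanted-tumor mice were given test agent; controls received vehicle only. Survival readings from the two groups were divided (treated over control).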

[1] = dose: 100.0 mg/kg/injection, schedule: Q04DX003 (ip), vehicle: Klucel (hydroxypropylcellulose) (HPC)
[2] = dose: 200.0 mg/kg/injection, schedule: Q04DX003 (ip), vehicle: Klucel (hydroxypropylcellulose) (HPC)
[3] = dose: 400.0 mg/kg/injection, schedule: Q04DX003 (ip), vehicle: Klucel (hydroxypropylcellulose) (HPC)
[4] = dose: 100.0 mg/kg/injection, schedule: Q04DX003 (ip), vehicle: saline with Tween-80
[5] = dose: 200.0 mg/kg/injection, schedule: Q04DX003 (ip), vehicle: saline with Tween-80
[6] = dose: 400.0 mg/kg/injection, schedule: Q04DX003 (ip), vehicle: saline with Tween-80
[7] = dose: 100.0 mg/kg/injection, schedule: Q01DX001 (ip), vehicle: saline
[8] = dose: 200.0 mg/kg/injection, schedule: Q01DX001 (ip), vehicle: saline

Measured: T/C

CS(=O)(=O)Oc1nn2c(OS(C)(=O)=O)nnc2s1
inactive: dose: 5.0 mg/kg/injection, schedule: Q01DX001 (ip), vehicle: saline 104 % of control | dose: 8.8 mg/kg/injection, schedule: Q01DX001 (ip), vehicle: saline 101 % of control and 90 % of control | dose: 10.0 mg/kg/injection, schedule: Q01DX001 (ip), vehicle: saline 109 % of control | dose: 13.3 mg/kg/injection, schedule: Q01DX001 (ip), vehicle: saline 98 % of control and 110 % of control | dose: 20.0 mg/kg/injection, schedule: Q01DX001 (ip), vehicle: saline 98 % of control and 104 % of control | dose: 30.0 mg/kg/injection, schedule: Q01DX001 (ip), vehicle: saline 104 % of control

O=C(NC(Cc1cn(Cc2ccccc2)cn1)C(=O)O)OCc1ccccc1 (stereo not drawn)
inactive: [1] 104 % of control | [2] 104 % of control | [3] 97 % of control

CC(=O)[C@H]1CC[C@H]2[C@@H]3C[C@H](C)C4=CC(=O)CC[C@]4(C)[C@@]3(F)[C@@H](O)C[C@]12C
inactive: dose: 12.5 mg/kg/injection, schedule: Q04DX002 (ip), vehicle: Klucel (hydroxypropylcellulose) (HPC) 102 % of control | dose: 25.0 mg/kg/injection, schedule: Q04DX002 (ip), vehicle: Klucel (hydroxypropylcellulose) (HPC) 105 % of control | dose: 50.0 mg/kg/injection, schedule: Q04DX002 (ip), vehicle: Klucel (hydroxypropylcellulose) (HPC) 102 % of control | dose: 100.0 mg/kg/injection, schedule: Q04DX003 (ip), vehicle: steriod suspending solution 96 % of control | dose: 200.0 mg/kg/injection, schedule: Q04DX003 (ip), vehicle: steriod suspending solution 105 % of control | dose: 400.0 mg/kg/injection, schedule: Q04DX003 (ip), vehicle: steriod suspending solution 102 % of control

CC(=O)CC(=O)Nc1ccc(N=Nc2ccccc2)cc1
inactive: [4] 93 % of control | [5] 91 % of control | [6] 91 % of control

C=C(C)C(=O)Nc1c(C)cccc1C
inactive: [1] 105 % of control | [2] 94 % of control

NC1=CC(=O)c2ccccc2C1=O
inactive: dose: 15.6 mg/kg/injection, schedule: Q01DX Z (ip), vehicle: other 112 % of control | dose: 62.5 mg/kg/injection, schedule: Q01DX Z (ip), vehicle: other 106 % of control | [4] 103 % of control | [5] 98 % of control

C[N+](C)(C)CCSc1ccc2c3c(cccc13)C(=O)c1ccccc1-2
inactive: dose: 12.5 mg/kg/injection, schedule: Q04DX002 (ip), vehicle: saline 107 % of control | dose: 25.0 mg/kg/injection, schedule: Q04DX002 (ip), vehicle: saline 104 % of control | dose: 50.0 mg/kg/injection, schedule: Q04DX002 (ip), vehicle: saline 86 % of control

Nc1ccc(/C=C/c2ccnc3ccccc23)cc1
inactive: dose: 0.5 mg/kg/injection, schedule: Q01DX015 (ip), vehicle: saline 101 % of control | dose: 1.0 mg/kg/injection, schedule: Q01DX015 (ip), vehicle: saline 101 % of control | dose: 2.0 mg/kg/injection, schedule: Q01DX015 (ip), vehicle: saline 101 % of control | dose: 4.0 mg/kg/injection, schedule: Q01DX015 (ip), vehicle: saline 101 % of control | dose: 50.0 mg/kg/injection, schedule: Q01DX001 (ip), vehicle: saline 95 % of control | [7] 97 % of control | [8] 95 % of control | dose: 400.0 mg/kg/injection, schedule: Q01DX001 (ip), vehicle: saline 105 % of control

NNC(=O)Cc1ccc([N+](=O)[O-])cc1
inactive: dose: 50.0 mg/kg/injection, schedule: Q01DX009 (ip), vehicle: saline 94 % of control | [7] 97 % of control | dose: 100.0 mg/kg/injection, schedule: Q01DX009 (ip), vehicle: saline 103 % of control | [8] 94 % of control | dose: 200.0 mg/kg/injection, schedule: Q01DX009 (ip), vehicle: saline 105 % of control

CCN(CC)C(=O)CS(=O)(=O)c1ccc(C)cc1
inactive: [4] 96 % of control | [5] 110 % of control | [6] 98 % of control

O=C1c2nc3ccccc3cc2CN1Cc1ccccc1
inactive: dose: 10.0 mg/kg/injection, schedule: Q04DX003 (ip), vehicle: alcohol 97 % of control | dose: 20.0 mg/kg/injection, schedule: Q04DX003 (ip), vehicle: alcohol 96 % of control | dose: 40.0 mg/kg/injection, schedule: Q04DX003 (ip), vehicle: alcohol 96 % of control | dose: 80.0 mg/kg/injection, schedule: Q04DX003 (ip), vehicle: alcohol 97 % of control | dose: 160.0 mg/kg/injection, schedule: Q04DX003 (ip), vehicle: alcohol 92 % of control

C/C=C/CNc1ccc(C)cc1
inactive: dose: 25.0 mg/kg/injection, schedule: Q01DX009 (ip), vehicle: saline with Tween-80 102 % of control | dose: 25.0 mg/kg/injection, schedule: Q04DX003 (ip), vehicle: saline with Tween-80 97 % of control | dose: 50.0 mg/kg/injection, schedule: Q01DX009 (ip), vehicle: saline with Tween-80 97 % of control | dose: 50.0 mg/kg/injection, schedule: Q04DX003 (ip), vehicle: saline with Tween-80 90 % of control | [4] 101 % of control

[Cl][Cd][Cl].c1ccc(N=P(c2ccccc2)(c2ccccc2)c2ccccc2)cc1
inactive: dose: 9.38 mg/kg/injection, schedule: Q01DX001 (ip), vehicle: other 105 % of control

COc1ccc(C(C#N)CC(=O)c2ccc(OCc3ccccc3)c(OC)c2)cc1OC (stereo not drawn)
inactive: dose: 75.0 mg/kg/injection, schedule: Q01DX009 (ip), vehicle: other 88 % of control | dose: 100.0 mg/kg/injection, schedule: Q04DX003 (ip), vehicle: saline 90 % of control | dose: 150.0 mg/kg/injection, schedule: Q01DX009 (ip), vehicle: other 90 % of control | dose: 200.0 mg/kg/injection, schedule: Q04DX003 (ip), vehicle: saline 96 % of control | dose: 300.0 mg/kg/injection, schedule: Q01DX009 (ip), vehicle: other 95 % of control | dose: 400.0 mg/kg/injection, schedule: Q04DX003 (ip), vehicle: saline 94 % of control | dose: 600.0 mg/kg/injection, schedule: Q01DX009 (ip), vehicle: other 102 % of control

COC(=O)c1n[nH]c(C)c1N=NN(C)C
inactive: dose: 75.0 mg/kg/injection, schedule: Q01DX001 (ip), vehicle: saline 119 % of control | dose: 150.0 mg/kg/injection, schedule: Q01DX001 (ip), vehicle: saline 123 % of control

N#C/C(=C\c1ccco1)C1CCCCC1
inactive: dose: 100.0 mg/kg/injection, schedule: Q04DX002 (ip), vehicle: other 86 % of control | dose: 200.0 mg/kg/injection, schedule: Q04DX002 (ip), vehicle: other 104 % of control

CC(C)(CO)NCC(C)(C)[N+](=O)[O-]
inactive: [1] 103 % of control | [2] 102 % of control | [3] 112 % of control
